Measurements: patent US20130303518A1, “Methods of Inhibiting the Catalytic Activity of a Protein Kinase and of Treating a Protein Kinase Related Disorder” (JIANGSU HANSOH PHARMACEUTICAL CO., LTD., priority 2007, published 2013)

What was measured:
HT-29(colon cancer) = assay: Anticancer pharmacodynamic assay in vivo, xenograft; parameters: species or system nude mice; conditions: for T/C (%): relative tumor volume (%): HT-29 xenograft, d0-20
From the text: (§1) The test method and steps are the same with those disclosed in “PHARMACODYNAMIC ASSAYS IN VIVO” of the present invention. The therapeutic effects of the compound of Example 53 against xenografts of colon cancer, non-small cell lung cancer, liver cancer, melanoma, renal cancer in nude mice are estimated.
HT-29(colon cancer): Cell Bank, Chinese Academy of Sciences, TCHu103;
(§2) Nude mice were hypodermic inoculated HT-29 human colon cancer cell. After tumors grew to 100-300 mm^3, mice were randomly divided into teams (d0). The volume of tumors and weigh of the mice were measured for 2-3 times per week. The calculation formula of the volume of tumor (V) is: V=½×a×b^2, a: length of tumor, b: width of tumor.

[1] = test system: Calu-3(non-small cell lung cancer); assay: as above; parameters: species or system nude mice; conditions: for T/C (%): relative tumor volume (%) / Note: PR (partial regression), animals: Calu-3 xenograft, d0-20; for Note: PR (partial regression), animals: treatment group n = 6
From the text: as §1
Calu-3(non-small cell lung cancer): Cell Bank, Chinese Academy of Sciences, TCHu157;
as §2

[2] = test system: Mo7e (human megakaryoblastic leukemia cell line); assay: Inhibition of cancer cell proliferation assay (SRB); format: cell-based; conditions: mean ± SD, 72 hours
From the text: (§3) The cellular assay described here is to test the proliferation inhibition activity of the compound of Example 53 on the cancer cells in vitro using Sulforhodamine B (SRB) method. The cancer cells include HUVEC (human umbilical vein endothelial cells), HT-29 (human colon cancer cells), Mo7e (human megakaryoblastic leukemia cell line), A431 (human epidermoid carcinoma cells), NCI—H526 (small-cell lung cancer cells), and SK—BR-3 (human breast cancer cells).
Mo7e cancer cell: originally described by Avanzi et al. ((1988) Br. J. Haematol. 69:359-366), was obtained from Genetics Institute (Boston, Mass.) and was maintained in Iscove's modified Dulbecco's medium (Life Technologies, Inc.);
(§4) The following in vitro assay is to determine the activity of the tested compound for inhibiting the proliferation of the cancer cells mentioned above. The activity is represented by the IC50 value. The general procedures of the assay are given as follows: Cancer cells mentioned above were chosen and seeded to 96-well cell culture plate at a suitable concentration (e.g., 5000 cells/mL medium). […] 72 hours later, the activity of the tested compound for inhibiting the cell proliferation was determined by using Sulforhodamine B (SRB) method. IC50 value on tested cells is calculated by the data of inhibition rates of serial concentrations of the tested compound.

Caki-1 (renal cancer) = assay: Anticancer pharmacodynamic assay in vivo, xenograft; parameters: species or system nude mice; conditions: for T/C (%): relative tumor volume (%): Caki-1 xenograft, d0-22
From the text: as §1
Caki-1 (renal cancer): Cell Bank, Chinese Academy of Sciences, TCHu135.
as §2

Bel-7402(liver cancer) = assay: as above; parameters: species or system nude mice; conditions: for T/C (%): relative tumor volume (%): Bel-7402 xenograft
From the text: as §1
Bel-7402(liver cancer): Cell Bank, Chinese Academy of Sciences, TCHu10;
as §2

A375 (melanoma) = assay: as above; parameters: species or system nude mice; conditions: for T/C (%): relative tumor volume (%): A375 xenograft
From the text: as §1
A375 (melanoma): Cell Bank, Chinese Academy of Sciences, TCHu4;
as §2

[3] = test system: SK—BR-3 (human breast cancer cells); assay: Inhibition of cancer cell proliferation assay (SRB); format: cell-based; conditions: SK-BR-3, 72 h, read-out: IC50 SK-BR-3
From the text: The cancer cells include HUVEC (human umbilical vein endothelial cells), HT-29 (human colon cancer cells), Mo7e (human megakaryoblastic leukemia cell line), A431 (human epidermoid carcinoma cells), NCI—H526 (small-cell lung cancer cells), and SK—BR-3 (human breast cancer cells).
The following in vitro assay is to determine the activity of the tested compound for inhibiting the proliferation of the cancer cells mentioned above. The activity is represented by the IC50 value. The general procedures of the assay are given as follows: Cancer cells mentioned above were chosen and seeded to 96-well cell culture plate at a suitable concentration (e.g., 5000 cells/mL medium). […] Then, the cell culture medium was replaced by fresh one with tested compound added in it at serial concentrations (general 6 to 7 concentrations). Then the cells were put back to the incubator and cultured continuously. 72 hours later, the activity of the tested compound for inhibiting the cell proliferation was determined by using Sulforhodamine B (SRB) method. IC50 value on tested cells is calculated by the data of inhibition rates of serial concentrations of the tested compound.

[4] = test system: HT-29 (human colon cancer cells); assay: as above; format: cell-based; conditions: mean ± SD, 72 hours
From the text: as §3
HT-29 cancer cell: Cell Bank, Chinese Academy of Sciences, TCHu103;
as §4, with “medium). These cells then were incubated in carbon dioxide (CO2) incubator until they reached 85% confluency.” for “medium).”

Cc1c(/C=C2\C(=O)Nc3ccc(F)cc32)[nH]c2c1C(=O)N(C[C@H](O)CN1CCOCC1)CCC2 [Example 53, (R,Z)-2-(5-Fluoro-2-oxo-1,2-dihydro-indol-3-ylidenemethyl)-5-(2-hydroxy-3-morpholin-4-yl-propyl)-3-methyl-5,6,7,8-tetrahydro-1H-pyrrolo[3,2-c]azepin-4-one]
anticancer activity against xenograft (in words) (HT-29(colon cancer); HT-29 xenograft in nude mice): obvious anticancer activity
T/C (%): relative tumor volume (%) (HT-29(colon cancer); 15 mg/kg p.o): 49.4%
T/C (%): relative tumor volume (%) (HT-29(colon cancer); 30 mg/kg p.o): 48.5%
T/C (%): relative tumor volume (%) (HT-29(colon cancer); 60 mg/kg p.o): 31.6%
anticancer activity against xenograft (in words) ([1]; Calu-3 xenograft in nude mice): obvious anticancer activity
T/C (%): relative tumor volume (%) ([1]; 15 mg/kg p.o): 26.3%
T/C (%): relative tumor volume (%) ([1]; 30 mg/kg p.o): 14.7%
Note: PR (partial regression), animals ([1]; 30 mg/kg p.o): 3/6(PR)
T/C (%): relative tumor volume (%) ([1]; 60 mg/kg p.o): 16.1%
Note: PR (partial regression), animals ([1]; 60 mg/kg p.o): 3/6(PR)
IC50 [2]: 800 nM
anticancer activity against xenograft (in words) (Caki-1 (renal cancer); Caki-1 xenograft in nude mice): obvious anticancer activity
T/C (%): relative tumor volume (%) (Caki-1 (renal cancer); 15 mg/kg p.o): 73.0%
T/C (%): relative tumor volume (%) (Caki-1 (renal cancer); 30 mg/kg p.o): 45.5%
T/C (%): relative tumor volume (%) (Caki-1 (renal cancer); 60 mg/kg p.o): 36.8%
anticancer activity against xenograft (in words) (Bel-7402(liver cancer); Bel-7402 xenograft in nude mice): obvious anticancer activity
T/C (%): relative tumor volume (%) (Bel-7402(liver cancer); 15 mg/kg p.o d0-17): 39.8%
T/C (%): relative tumor volume (%) (Bel-7402(liver cancer); 30 mg/kg p.o d0-17): 29.2%
T/C (%): relative tumor volume (%) (Bel-7402(liver cancer); 60 mg/kg p.o d0-17): 13.3%
anticancer activity against xenograft (in words) (A375 (melanoma); A375 xenograft in nude mice): obvious anticancer activity
T/C (%): relative tumor volume (%) (A375 (melanoma); 15 mg/kg p.o d0-16): 82.5%
T/C (%): relative tumor volume (%) (A375 (melanoma); 30 mg/kg p.o d0-16): 58.5%
T/C (%): relative tumor volume (%) (A375 (melanoma); 60 mg/kg p.o d0-16): 46.4%
IC50 [3]: 7800 ± 1500 nM
IC50 [4]: 2400 ± 1600 nM
